Results on 25 compounds are retold here after ChEMBL document CHEMBL4811291, “Discovery of macrocyclic HDACs 1, 2, and 3 selective inhibitors for HIV latency reactivation” (Bioorg Med Chem Lett, 2021).

Assay [1] has as its target T1, Protein deacetylase HDAC6 (Homo sapiens, UniProt Q9UBN7).
T1 sequence (Q9UBN7 whole entry): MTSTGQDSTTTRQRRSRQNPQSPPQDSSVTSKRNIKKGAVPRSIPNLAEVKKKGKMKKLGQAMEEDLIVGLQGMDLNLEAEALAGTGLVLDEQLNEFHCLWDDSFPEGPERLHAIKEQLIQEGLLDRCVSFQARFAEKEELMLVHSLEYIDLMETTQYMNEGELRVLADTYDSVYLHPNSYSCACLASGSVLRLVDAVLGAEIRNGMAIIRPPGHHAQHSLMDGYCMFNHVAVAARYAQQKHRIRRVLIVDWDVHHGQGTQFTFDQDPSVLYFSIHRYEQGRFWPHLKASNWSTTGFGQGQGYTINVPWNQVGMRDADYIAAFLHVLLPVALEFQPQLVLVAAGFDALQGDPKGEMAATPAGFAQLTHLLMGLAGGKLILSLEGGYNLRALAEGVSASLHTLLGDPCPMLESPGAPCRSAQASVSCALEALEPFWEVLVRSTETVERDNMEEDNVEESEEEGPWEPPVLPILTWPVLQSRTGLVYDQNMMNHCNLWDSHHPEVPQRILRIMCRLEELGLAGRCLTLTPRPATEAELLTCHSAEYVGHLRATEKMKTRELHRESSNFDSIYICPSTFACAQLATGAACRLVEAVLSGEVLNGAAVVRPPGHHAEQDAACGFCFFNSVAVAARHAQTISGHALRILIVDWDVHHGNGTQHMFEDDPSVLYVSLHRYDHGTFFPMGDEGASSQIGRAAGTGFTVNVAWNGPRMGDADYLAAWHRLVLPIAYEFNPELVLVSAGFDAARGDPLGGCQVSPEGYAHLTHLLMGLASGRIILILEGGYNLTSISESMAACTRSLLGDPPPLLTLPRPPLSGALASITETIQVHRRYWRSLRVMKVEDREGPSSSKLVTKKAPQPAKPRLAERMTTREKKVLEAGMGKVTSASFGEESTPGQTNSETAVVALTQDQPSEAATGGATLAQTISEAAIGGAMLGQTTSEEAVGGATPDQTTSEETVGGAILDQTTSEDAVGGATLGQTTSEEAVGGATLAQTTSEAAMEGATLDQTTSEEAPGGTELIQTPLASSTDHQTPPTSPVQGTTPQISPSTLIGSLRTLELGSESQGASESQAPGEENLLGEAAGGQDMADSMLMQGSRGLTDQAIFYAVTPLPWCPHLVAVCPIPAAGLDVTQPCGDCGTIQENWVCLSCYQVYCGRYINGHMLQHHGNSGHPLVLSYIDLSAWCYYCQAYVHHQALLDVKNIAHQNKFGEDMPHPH
In words: Inhibition of HDAC6 (unknown origin).

In assay [2] the target is T2, Histone deacetylase 8 (Homo sapiens, UniProt Q9BY41).
T2 sequence (Q9BY41 whole entry): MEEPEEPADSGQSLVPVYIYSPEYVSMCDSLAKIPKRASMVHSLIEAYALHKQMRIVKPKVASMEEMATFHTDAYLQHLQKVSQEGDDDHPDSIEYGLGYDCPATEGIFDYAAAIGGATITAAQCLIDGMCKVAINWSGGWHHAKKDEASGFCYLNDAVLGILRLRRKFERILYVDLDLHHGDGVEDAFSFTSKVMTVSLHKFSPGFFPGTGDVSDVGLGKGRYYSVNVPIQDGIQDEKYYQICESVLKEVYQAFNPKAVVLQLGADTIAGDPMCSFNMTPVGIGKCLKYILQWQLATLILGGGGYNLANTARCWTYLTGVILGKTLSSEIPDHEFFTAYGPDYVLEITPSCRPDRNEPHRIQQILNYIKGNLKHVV
Briefly: Inhibition of HDAC8 (unknown origin).

For assay [3], the system named is Human immunodeficiency virus. In words: Reactivation of HIV latency infected in human 2C4 cells in presence of 0.1 % NHS by luciferase reporter gene assay. It is filed as functional, organism-based. (In a reporter assay the amount or activity of a reporter protein is the signal.)
Assay [4] concerns Human immunodeficiency virus. Briefly: Reactivation of HIV latency infected in human 2C4 cells in presence of 5 % NHS by luciferase reporter gene assay. It is filed as functional, organism-based.
Assay [5] has as its target Histone deacetylase 2 (Homo sapiens, UniProt Q92769). Briefly: Inhibition of HDAC2 (unknown origin).
Assay [6] concerns the target Histone deacetylase 3 (Homo sapiens, UniProt O15379). In words: Inhibition of HDAC3 (unknown origin).
The target in assay [7] is Histone deacetylase 1 (Homo sapiens, UniProt Q13547). In words: Inhibition of HDAC1 (unknown origin).
Setting [8] is: Human immunodeficiency virus 1, 2C4.

As usually defined, the IC50 is the point on the concentration scale where inhibition reaches its midpoint. A high value points to weaker potency. The EC50 is the concentration needed to bring the measured effect to its halfway point.

Histone deacetylase 3, sequence (O15379 whole entry): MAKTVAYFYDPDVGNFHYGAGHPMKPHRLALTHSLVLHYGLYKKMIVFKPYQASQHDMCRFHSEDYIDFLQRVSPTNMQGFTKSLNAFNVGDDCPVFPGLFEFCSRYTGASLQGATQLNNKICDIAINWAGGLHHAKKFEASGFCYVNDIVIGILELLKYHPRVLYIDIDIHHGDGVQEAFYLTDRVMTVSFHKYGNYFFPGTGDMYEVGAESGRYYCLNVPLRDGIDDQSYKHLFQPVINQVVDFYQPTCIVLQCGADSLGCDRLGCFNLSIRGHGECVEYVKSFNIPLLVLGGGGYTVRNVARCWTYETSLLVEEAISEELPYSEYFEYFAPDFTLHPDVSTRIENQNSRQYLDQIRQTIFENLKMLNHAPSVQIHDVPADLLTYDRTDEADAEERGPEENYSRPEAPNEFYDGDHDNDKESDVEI
Histone deacetylase 1, sequence (Q13547 whole entry): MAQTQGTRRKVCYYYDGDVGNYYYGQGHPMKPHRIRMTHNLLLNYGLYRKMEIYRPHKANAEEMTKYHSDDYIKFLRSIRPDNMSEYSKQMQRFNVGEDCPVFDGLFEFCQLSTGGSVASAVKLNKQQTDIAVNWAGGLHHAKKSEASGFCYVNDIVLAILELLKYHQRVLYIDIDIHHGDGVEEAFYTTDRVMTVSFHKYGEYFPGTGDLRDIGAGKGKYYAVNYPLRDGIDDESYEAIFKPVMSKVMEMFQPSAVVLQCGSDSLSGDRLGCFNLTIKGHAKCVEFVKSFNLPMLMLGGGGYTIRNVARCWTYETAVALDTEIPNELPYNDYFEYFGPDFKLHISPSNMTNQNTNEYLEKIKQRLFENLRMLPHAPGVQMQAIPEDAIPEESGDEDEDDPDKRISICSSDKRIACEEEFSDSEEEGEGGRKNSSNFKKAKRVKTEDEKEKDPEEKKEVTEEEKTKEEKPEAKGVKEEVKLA
Histone deacetylase 2, sequence (Q92769 whole entry): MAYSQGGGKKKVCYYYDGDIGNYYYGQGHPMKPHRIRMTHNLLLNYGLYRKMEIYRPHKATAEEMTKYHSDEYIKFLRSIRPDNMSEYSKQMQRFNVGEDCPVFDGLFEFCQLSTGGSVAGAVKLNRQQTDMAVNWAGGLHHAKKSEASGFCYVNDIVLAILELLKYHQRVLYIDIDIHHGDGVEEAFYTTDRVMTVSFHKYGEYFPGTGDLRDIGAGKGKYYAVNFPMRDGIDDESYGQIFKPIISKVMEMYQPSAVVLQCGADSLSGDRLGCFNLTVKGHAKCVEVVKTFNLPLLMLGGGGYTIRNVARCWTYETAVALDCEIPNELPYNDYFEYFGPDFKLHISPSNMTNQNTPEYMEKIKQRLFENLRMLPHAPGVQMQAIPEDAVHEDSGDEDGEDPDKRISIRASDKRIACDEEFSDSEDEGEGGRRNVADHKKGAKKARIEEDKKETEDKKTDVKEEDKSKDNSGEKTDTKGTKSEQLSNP

Turning to `CCC(=O)CCCCC[C@H](NC(=O)[C@H]1CC12CCN(CC)CC2)c1[nH]c2nc1C(=O)NCCCCCc1cccc-2c1`, the IC50 in assay [1], in assay [2] and in assay [5] was more than 0.9 µM each time. For the same compound, the figures for the EC50 in assay [3] (setting [8]) and in assay [4] (setting [8]) were more than 40 µM and 12 µM, respectively.

As for `CCC(=O)CCCCC[C@@H]1NC(=O)[C@H]2CC23CCN(C/C=C/CN2C4CCC2c2cc(ccc24)-c2cnc1[nH]2)CC3` (some centres undefined), the IC50 in assay [1] was more than 0.9 µM; in assay [2], more than 0.9 µM; in assay [5] it was 0.00086 µM. Further, the EC50 in assay [3] (setting [8]) stood at 0.073 µM; in assay [4] (setting [8]), 0.076 µM.

Take `CCC(=O)CCCCC[C@H](NC(=O)C1CN(C)C1)c1[nH]c(-c2ccccc2)nc1C(N)=O`: the EC50 in assay [3] (setting [8]) worked out at 0.294 µM; in assay [4] (setting [8]), 0.269 µM.

In the case of `CCC(=O)CCCCC[C@H](NC(=O)[C@H]1CC12CCN(CC)CC2)c1[nH]c2nc1C(=O)NCCC/C=C/c1cccc-2c1`, the EC50 in assay [3] (setting [8]) was determined as 5.24 µM; in assay [4] (setting [8]), 19.3 µM.

In assay [1], `CCC(=O)CCCCC[C@H](NC(=O)C1CN(C)C1)c1ncc(-c2cc3ccccc3nc2OC)[nH]1` gave an IC50 of 0.68 µM.

For the compound `CCC(=O)CCCCC[C@@H]1NC(=O)[C@H]2CC23CCN(CCCCCOc2ccc4cc(ccc4n2)-c2cnc1o2)CC3`, the IC50 in assay [1] and in assay [2] was more than 0.9 µM each time. Further, the EC50 in assay [3] (setting [8]) and in assay [4] (setting [8]) was more than 40 µM throughout.

For the compound `CCC(=O)CCCCC[C@@H]1NC(=O)[C@H]2CC23CCN(CCCOCCn2ccc4cc(ccc4c2=O)-c2cnc1[nH]2)CC3`, the IC50 in assay [1] and in assay [2] was more than 0.9 µM throughout. Moreover, the EC50 in assay [3] (setting [8]) and in assay [4] (setting [8]) was more than 40 µM throughout.

`CCC(=O)CCCCC[C@@H]1NC(=O)[C@H]2CC23CCN(CCCOCCCn2ccc4cc(ccc4c2=O)-c2cnc1[nH]2)CC3` registered an IC50 in assay [1] of more than 0.9 µM. The EC50 is 1.79 µM in assay [3] (setting [8]) and 1.99 µM in assay [4] (setting [8]).

Turning to `CCC(=O)CCCCC[C@H](NC(=O)C1CN(C)C1)c1ncc(-c2ccccc2)[nH]1`, the IC50 in assay [6] was determined as 0.012 µM; in assay [1], 5.75 µM; in assay [2], 15 µM; in assay [7] it was 0.037 µM; in assay [5], 0.249 µM. Further, the EC50 is 2.47 µM in assay [3] (setting [8]) and 2.36 µM in assay [4] (setting [8]).

For `CCC(=O)CCCCC[C@@H]1NC(=O)C2CCN2CCCCCCc2ccccc2-c2cnc1[nH]2` (stereo in doubt; 8), the IC50 in assay [6] came out at 0.188 µM; in assay [1], 17.5 µM; in assay [7] it was 0.355 µM; in assay [5], 1.14 µM.

Consider `CCC(=O)CCCCC[C@@H]1NC(=O)C2CCN2CCCCCCOc2ccccc2-c2cnc1[nH]2` (stereo in doubt; 6), for which the IC50 was determined as 0.105 µM in assay [6]; 5.55 µM in assay [1]; 8.42 µM in assay [2]; 0.218 µM in assay [7]; 0.668 µM in assay [5]. In addition, the EC50 was 1.57 µM in assay [3] (setting [8]) and 3.02 µM in assay [4] (setting [8]).

As for `CCC(=O)CCCCC[C@@H]1NC(=O)[C@H]2CCCCN2C(=O)[C@H]([C@@H](C)CC)NC(=O)[C@H](Cc2cn(OC)c3ccccc23)NC1=O`, the EC50 turned out to be 0.125 µM in assay [3] (2c4) and 0.587 µM in assay [4] (2c4).

For `CCC(=O)CCCCC[C@@H]1NC(=O)CN(C)CCCCOCCCCn2ccc3cc(ccc3c2=O)-c2cnc1[nH]2`, the IC50 in assay [1] and in assay [2] was more than 0.9 µM throughout. For the same compound, the 50% effective concentration (EC50) in assay [3] (setting [8]) stood at 2.5 µM; in assay [4] (setting [8]), 3.51 µM.

Take `CCC(=O)CCCCC[C@H](NC(=O)[C@H]1CC12CCN(CC)CC2)c1[nH]c(-c2ccc(F)cc2)nc1C(N)=O`: the EC50 in assay [3] (setting [8]) was determined as 0.193 µM; in assay [4] (setting [8]), 0.165 µM.

For the compound `CCC(=O)CCCCC[C@@H]1NC(=O)[C@H]2CC23CCN(CCCCN2C4CCC2c2c(cccc24)-c2cnc1[nH]2)CC3` (some centres undefined), the IC50 in assay [1] was more than 0.9 µM; in assay [2] it was more than 0.9 µM; in assay [5], 0.024 µM. Moreover, the EC50 in assay [3] (setting [8]) was found to be 6.27 µM; in assay [4] (setting [8]) it was 9.06 µM.

On to `CCC(=O)CCCCC[C@@H]1NC(=O)C2CCN2CCCCCOc2ccccc2-c2cnc1[nH]2` (stereo in doubt; 3), for which the IC50 in assay [6] came out at 0.791 µM; in assay [7], 2.56 µM; in assay [5], 8.62 µM.

`CCC(=O)CCCCC[C@H](NC(=O)[C@H]1CC12CCN(C)CC2)c1ncc(-c2ccc3c(=O)n(C)ccc3c2)[nH]1`: the EC50 in assay [4] (setting [8]) was found to be 0.13 µM.

With `CCC(=O)CCCCC[C@H](NC(=O)[C@H]1CC12CCN(CC)CC2)c1ncc(-c2ccc3c(=O)n(CC)ccc3c2)[nH]1`, the IC50 in assay [6], in assay [7] and in assay [5] was less than 0.0015 µM throughout. For the same compound, the figures for the EC50 in assay [3] (setting [8]) and in assay [4] (setting [8]) were 0.052 µM and 0.056 µM, respectively.

As for `CCC(=O)CCCCC[C@H](NC(=O)[C@H]1CC12CCN(C)CC2)c1ncc(-c2ccc3c(c2)C2CCC3C2)[nH]1` (some centres undefined), the results for the EC50 in assay [3] (setting [8]) and in assay [4] (setting [8]) were 0.351 µM and 0.376 µM, respectively. In assay [5], this compound gave an IC50 of 0.0037 µM.

Regarding `CCC(=O)CCCCC[C@@H]1NC(=O)[C@H]2CC23CCN(CCCCCn2c(=O)ccc4cc(ccc42)-c2cnc1o2)CC3`, the IC50 was 0.056 µM in assay [6]; 0.858 µM in assay [1]; more than 0.9 µM in assay [2]; 0.016 µM in assay [7]; 0.26 µM in assay [5]. Moreover, the EC50 in assay [3] (setting [8]) turned out to be 5.15 µM; in assay [4] (setting [8]), 4.73 µM.

For `CCC(=O)CCCCC[C@@H]1NC(=O)C2CCN2CCCCCCOc2ccccc2-c2cnc1[nH]2` (stereo in doubt; 5), the IC50 in assay [6] came to 0.242 µM; in assay [7], 0.682 µM; in assay [5] it was 2.83 µM.

Take `CCC(=O)CCCCC[C@H](NC(=O)[C@H]1CC12CCN(CC)CC2)c1[nH]c2nc1C(=O)NCCC/C=C\c1cccc-2c1`: the IC50 in assay [1] is more than 0.9 µM; in assay [2] it was 0.09 µM. Moreover, the EC50 came out at 1.46 µM in assay [3] (setting [8]) and 2.88 µM in assay [4] (setting [8]).

In the case of `CCC(=O)CCCCC[C@@H]1NC(=O)C2CCN2CCCCCOc2ccccc2-c2cnc1[nH]2` (stereo in doubt; 4), the half-inhibitory concentration (IC50) in assay [6] turned out to be 0.091 µM; in assay [1], 5.39 µM; in assay [2], 21.5 µM; in assay [7], 0.216 µM; in assay [5] it was 0.911 µM. The concentration for a half-maximal effect (EC50) in assay [3] (setting [8]) came to 3.17 µM; in assay [4] (setting [8]) it was 5.09 µM.

Take `CCC(=O)CCCCC[C@@H]1NC(=O)C2CCN2CCCCCCc2ccccc2-c2cnc1[nH]2` (stereo in doubt; 7): the IC50 in assay [6] came out at 1.22 µM; in assay [1] it was 9.83 µM; in assay [7], 2.94 µM; in assay [5] it was 5.95 µM.

As for `CCC(=O)CCCCC[C@@H]1NC(=O)[C@H]2CC23CCN(CCCCN2C4CCC2c2cc(ccc24)-c2cnc1[nH]2)CC3` (some centres undefined), the IC50 in assay [1] is more than 0.9 µM; in assay [2], more than 0.9 µM; in assay [5], 0.049 µM. The EC50 amounted to 0.844 µM in assay [3] (setting [8]) and 0.867 µM in assay [4] (setting [8]).
